ChEMBL document CHEMBL4622850, “Discovery and optimization of new oxadiazole substituted thiazole RORγt inverse agonists through a bioisosteric amide replacement approach” (Bioorg Med Chem Lett, 2020)
pIC50: −log10 of the molar value. Values after ≈ are worked out from the molar mass of the structure shown.

Key:
[1] = biological target: T1, Nuclear receptor subfamily 1 group I member 2 (Homo sapiens, UniProt O75469); assay: Activation of PXR (unknown origin) at 5 uM; assay type: ADME
T1 sequence (O75469 whole entry): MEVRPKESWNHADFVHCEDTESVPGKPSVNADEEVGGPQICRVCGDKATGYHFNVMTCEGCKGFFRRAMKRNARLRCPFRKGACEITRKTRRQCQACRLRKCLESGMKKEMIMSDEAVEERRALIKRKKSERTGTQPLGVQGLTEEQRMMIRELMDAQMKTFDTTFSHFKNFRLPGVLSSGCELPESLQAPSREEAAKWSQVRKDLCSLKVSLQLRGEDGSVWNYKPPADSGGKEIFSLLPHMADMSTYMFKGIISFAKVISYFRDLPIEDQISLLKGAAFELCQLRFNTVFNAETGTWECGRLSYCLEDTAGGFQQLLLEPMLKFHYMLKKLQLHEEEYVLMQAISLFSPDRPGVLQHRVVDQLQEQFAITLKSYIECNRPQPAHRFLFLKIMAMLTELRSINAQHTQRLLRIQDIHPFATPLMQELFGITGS

[2] = Solubility of compound by pH 2; assay type: physicochemical; conditions: buffer
[3] = Solubility of compound by pH 7; assay type: physicochemical; conditions: buffer
[4] = Cmax in rat at 5 mg/kg, po; assay type: ADME, organism-based; design: dose 5 mg/kg, route oral; conditions: in vivo
[5] = AUC in rat at 5 mg/kg, po; assay type: ADME, organism-based; conditions: in vivo
[6] = Clearance in rat at 1 mg/kg, iv; assay type: ADME, organism-based; conditions: in vivo
[7] = Volume of distribution in rat at 1 mg/kg, iv; assay type: ADME, organism-based; conditions: in vivo
[8] = Half life in rat at 1 mg/kg, iv; assay type: ADME, organism-based; conditions: in vivo
[9] = Oral bioavailability in rat at 1 mg/kg; assay type: ADME, organism-based; conditions: in vivo
[10] = biological target: T2, Nuclear receptor ROR-gamma (Mus musculus, UniProt P51450); assay: Inverse agonist activity at RORgammat in mouse whole blood assessed as reduction in IL-17a production; assay type: tissue-based
T2 sequence (P51450 whole entry): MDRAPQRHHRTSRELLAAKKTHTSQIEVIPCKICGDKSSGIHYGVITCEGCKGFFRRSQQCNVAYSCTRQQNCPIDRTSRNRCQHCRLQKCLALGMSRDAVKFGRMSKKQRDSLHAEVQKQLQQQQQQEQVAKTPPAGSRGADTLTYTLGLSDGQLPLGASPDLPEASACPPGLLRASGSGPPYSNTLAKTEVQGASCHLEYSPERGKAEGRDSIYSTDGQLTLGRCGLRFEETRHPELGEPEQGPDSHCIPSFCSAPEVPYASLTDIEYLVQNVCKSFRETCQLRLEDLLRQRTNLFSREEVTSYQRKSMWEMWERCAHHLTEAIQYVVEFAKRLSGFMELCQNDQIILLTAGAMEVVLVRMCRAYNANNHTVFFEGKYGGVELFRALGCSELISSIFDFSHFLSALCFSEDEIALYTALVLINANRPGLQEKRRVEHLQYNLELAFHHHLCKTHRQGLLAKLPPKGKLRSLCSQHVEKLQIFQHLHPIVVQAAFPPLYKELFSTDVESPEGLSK

Cytochrome P450 2C9 = Cytochrome P450 2C9 (Homo sapiens, UniProt P11712); assay: Inhibition of CYP2C9 (unknown origin); assay type: ADME
Chain of Cytochrome P450 2C9 (P11712 whole entry): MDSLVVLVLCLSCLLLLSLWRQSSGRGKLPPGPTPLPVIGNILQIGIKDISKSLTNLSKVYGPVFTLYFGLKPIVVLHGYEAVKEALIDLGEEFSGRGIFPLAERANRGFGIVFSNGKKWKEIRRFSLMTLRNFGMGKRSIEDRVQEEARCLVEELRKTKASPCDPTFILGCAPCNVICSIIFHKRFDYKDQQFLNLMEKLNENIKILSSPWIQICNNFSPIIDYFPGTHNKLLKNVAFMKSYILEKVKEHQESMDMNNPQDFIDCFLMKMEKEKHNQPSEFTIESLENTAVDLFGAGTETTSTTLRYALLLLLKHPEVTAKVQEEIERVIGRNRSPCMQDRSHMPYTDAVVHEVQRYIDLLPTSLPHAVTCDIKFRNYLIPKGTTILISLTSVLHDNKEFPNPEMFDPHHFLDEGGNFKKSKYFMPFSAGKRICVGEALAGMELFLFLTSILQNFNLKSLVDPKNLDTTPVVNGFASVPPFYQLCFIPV

[11] = Metabolic stability in human liver microsomes assessed as half life; assay type: ADME, Microsome
[12] = Metabolic stability in rat liver microsomes assessed as half life; assay type: ADME, Microsome
[13] = Protein binding in human plasma; assay type: ADME, cell-free; conditions: read-out: PPB (converted)
[14] = Protein binding in mouse plasma; assay type: ADME, cell-free; conditions: read-out: PPB (converted)
Cytochrome P450 2C8 = biological target: T3, Cytochrome P450 2C8 (Homo sapiens, UniProt P10632); assay: Inhibition of CYP2C8 (unknown origin); assay type: ADME
T3 sequence (P10632 whole entry): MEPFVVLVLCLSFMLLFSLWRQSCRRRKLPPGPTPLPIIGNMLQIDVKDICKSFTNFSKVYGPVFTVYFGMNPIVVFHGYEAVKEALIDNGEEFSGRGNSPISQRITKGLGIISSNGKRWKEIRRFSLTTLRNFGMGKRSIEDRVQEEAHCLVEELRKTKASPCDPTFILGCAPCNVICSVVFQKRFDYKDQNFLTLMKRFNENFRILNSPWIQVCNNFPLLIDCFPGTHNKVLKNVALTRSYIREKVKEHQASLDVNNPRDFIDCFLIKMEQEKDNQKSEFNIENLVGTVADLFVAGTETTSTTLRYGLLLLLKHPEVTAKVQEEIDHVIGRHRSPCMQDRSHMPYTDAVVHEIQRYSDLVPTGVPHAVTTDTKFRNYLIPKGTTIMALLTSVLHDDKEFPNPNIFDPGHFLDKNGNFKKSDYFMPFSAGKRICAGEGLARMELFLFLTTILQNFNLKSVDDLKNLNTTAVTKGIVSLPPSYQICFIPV

[15] = biological target: T1, Nuclear receptor subfamily 1 group I member 2; assay: Activation of PXR (unknown origin) at 1 uM; assay type: ADME
CYP3A4 [16] = biological target: T4, CYP3A4 (Homo sapiens, UniProt P08684); assay: Inhibition of CYP3A4 (unknown origin) at 1 uM; assay type: ADME
T4 sequence (P08684 whole entry): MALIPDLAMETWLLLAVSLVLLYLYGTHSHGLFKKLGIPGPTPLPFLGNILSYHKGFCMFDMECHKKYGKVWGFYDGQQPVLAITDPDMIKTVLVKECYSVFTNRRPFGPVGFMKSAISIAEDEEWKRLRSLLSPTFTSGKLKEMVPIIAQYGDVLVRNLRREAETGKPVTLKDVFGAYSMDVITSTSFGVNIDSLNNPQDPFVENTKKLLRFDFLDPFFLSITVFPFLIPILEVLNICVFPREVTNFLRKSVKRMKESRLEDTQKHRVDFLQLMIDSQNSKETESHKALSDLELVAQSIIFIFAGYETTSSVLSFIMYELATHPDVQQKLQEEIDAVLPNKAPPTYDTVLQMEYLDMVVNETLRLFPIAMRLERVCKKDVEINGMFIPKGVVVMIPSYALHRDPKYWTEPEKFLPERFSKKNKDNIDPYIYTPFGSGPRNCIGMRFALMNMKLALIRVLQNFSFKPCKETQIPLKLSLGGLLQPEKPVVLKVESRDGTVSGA

CYP3A4 [17] = biological target: T4, CYP3A4; assay: Inhibition of CYP3A4 (unknown origin) at 10 uM; assay type: ADME
[18] = Plasma concentration in mouse at 30 mg/kg, po measured after 0.5 hrs; assay type: ADME, organism-based
[19] = Plasma concentration in mouse at 30 mg/kg, po measured after 1 hr; assay type: ADME, organism-based
[20] = Plasma concentration in mouse at 30 mg/kg, po measured after 2 hrs; assay type: ADME, organism-based
[21] = Plasma concentration in mouse at 30 mg/kg, po measured after 4 hrs; assay type: ADME, organism-based
[22] = Plasma concentration in mouse at 30 mg/kg, po measured after 7 hrs; assay type: ADME, organism-based
[23] = Plasma concentration in mouse at 30 mg/kg, po measured after 24 hrs; assay type: ADME, organism-based
[24] = biological target: T5, Nuclear receptor ROR-gamma (Mus musculus) (UniProt P51450); assay: In vivo inhibition of RORgammat in mouse assessed as reduction in IL-17a production at 30 mg/kg, po measured after 0.5 hrs relative to control; assay type: functional, organism-based
T5 sequence (whole entry): T2 sequence (P51450 whole entry)

[25] = biological target: T5, Nuclear receptor ROR-gamma (Mus musculus); assay: In vivo inhibition of RORgammat in mouse assessed as reduction in IL-17a production at 30 mg/kg, po measured after 1 hr relative to control; assay type: functional, organism-based
[26] = biological target: T5, Nuclear receptor ROR-gamma (Mus musculus); assay: In vivo inhibition of RORgammat in mouse assessed as reduction in IL-17a production at 30 mg/kg, po measured after 2 hrs relative to control; assay type: functional, organism-based
[27] = biological target: T5, Nuclear receptor ROR-gamma (Mus musculus); assay: In vivo inhibition of RORgammat in mouse assessed as reduction in IL-17a production at 30 mg/kg, po measured after 4 hrs relative to control; assay type: functional, organism-based
[28] = biological target: T5, Nuclear receptor ROR-gamma (Mus musculus); assay: In vivo inhibition of RORgammat in mouse assessed as reduction in IL-17a production at 30 mg/kg, po measured after 7 hrs relative to control; assay type: functional, organism-based
[29] = biological target: T5, Nuclear receptor ROR-gamma (Mus musculus); assay: In vivo inhibition of RORgammat in mouse assessed as reduction in IL-17a production at 30 mg/kg, po measured after 24 hrs relative to control; assay type: functional, organism-based
[30] = Cmax in rat at 300 mg/kg, po measured on day 1; assay type: ADME, organism-based; design: dose 300 mg/kg, route oral; conditions: in vivo
[31] = AUC in rat at 300 mg/kg, po measured on day 1; assay type: ADME, organism-based; conditions: in vivo
[32] = Cmax in rat at 300 mg/kg, po measured on day 5; assay type: ADME, organism-based; design: dose 300 mg/kg, route oral; conditions: in vivo
[33] = AUC in rat at 300 mg/kg, po measured on day 5; assay type: ADME, organism-based; conditions: in vivo
Cytochrome P450 2C19 = Cytochrome P450 2C19 (Homo sapiens, UniProt P33261); assay: Inhibition of CYP2C19 (unknown origin); assay type: ADME
Chain of Cytochrome P450 2C19 (P33261 whole entry): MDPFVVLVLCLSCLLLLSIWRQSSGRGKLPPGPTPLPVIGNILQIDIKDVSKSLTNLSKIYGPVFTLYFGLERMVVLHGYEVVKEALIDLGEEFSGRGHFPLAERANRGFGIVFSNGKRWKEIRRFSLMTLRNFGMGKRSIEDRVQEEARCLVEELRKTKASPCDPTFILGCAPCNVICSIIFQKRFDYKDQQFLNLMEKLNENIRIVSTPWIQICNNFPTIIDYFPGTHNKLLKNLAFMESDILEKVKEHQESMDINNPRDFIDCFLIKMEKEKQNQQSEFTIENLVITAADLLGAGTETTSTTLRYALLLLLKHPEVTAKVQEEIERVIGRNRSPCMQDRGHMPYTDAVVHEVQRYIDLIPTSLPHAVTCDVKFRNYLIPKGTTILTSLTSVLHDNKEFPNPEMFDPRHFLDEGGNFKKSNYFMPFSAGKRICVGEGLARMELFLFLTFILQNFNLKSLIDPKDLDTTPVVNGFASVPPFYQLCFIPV

[34] = Protein binding in rat plasma; assay type: ADME, cell-free; conditions: read-out: PPB (converted)
[35] = Plasma concentration in mouse at 3 mg/kg, po measured after 1 hr; assay type: ADME, organism-based
[36] = biological target: T5, Nuclear receptor ROR-gamma (Mus musculus); assay: In vivo inhibition of RORgammat in mouse assessed as reduction in IL-17a production at 3 mg/kg, po measured after 1 hr relative to control; assay type: functional, organism-based
[37] = Cmax in rat at 1000 mg/kg, po measured on day 1; assay type: ADME, organism-based; design: dose 1000 mg/kg, route oral; conditions: in vivo
[38] = AUC in rat at 1000 mg/kg, po measured on day 1; assay type: ADME, organism-based; conditions: in vivo
[39] = Cmax in rat at 1000 mg/kg, po measured on day 5; assay type: ADME, organism-based; design: dose 1000 mg/kg, route oral; conditions: in vivo
[40] = AUC in rat at 1000 mg/kg, po measured on day 5; assay type: ADME, organism-based; conditions: in vivo

Structure (SMILES)	solubility [2] [µM]	solubility [3] [µM]	Cmax [4] [µM]	AUC [5] [µg·h/mL]	clearance [6] [mL/min/kg]	Vd [7] [L/kg]	half-life [8] [h]	bioavailability [9] [%]	pIC50 [10]	half-life [11] [h]	half-life [12] [h]	fraction unbound [13]	fraction unbound [14]	Activity [15] [%]	inhibition at 1 µM (CYP3A4 [16]) [%]	inhibition at 10 µM (CYP3A4 [17]) [%]	concentration at 1 h [19] [µM]	inhibition [25] [%]	other results
CC[C@H](NS(=O)(=O)c1ccc(-c2sc(CC(C)(C)C(=O)O)nc2CC2CCC2)c(C(F)F)c1F)C(F)(F)F	< 4	355 (≈ 208 µg/mL)	3.8	32.7	2.9	1.7	7.6	112	5.60	> 3	> 3	0.003	0.002	8.9	-1	3.4	52.1	68	Activity [1]: 21%; pIC50 (Cytochrome P450 2C9): 5.20; pIC50 (Cytochrome P450 2C8): 5.74; concentration at 0.5 h [18]: 61.4 µM; concentration at 2 h [20]: 46.4 µM; concentration at 4 h [21]: 39.7 µM; concentration at 7 h [22]: 43.1 µM; concentration at 24 h [23]: 2.2 µM; inhibition [24]: 73%; inhibition [26]: 75%; inhibition [27]: 61%; inhibition [28]: 46%; inhibition [29]: 39%; Cmax [30]: 303 µg/mL; AUC [31]: 4710 µg·h/mL; Cmax [32]: 151 µg/mL; AUC [33]: 1790 µg·h/mL
C[C@H](NS(=O)(=O)c1ccc(-c2sc(-c3nnc(C(C)(C)O)o3)nc2C(=O)N2CCC(F)(F)CC2)c(Cl)c1Cl)C(F)(F)F	18 (≈ 12.2 µg/mL)	35 (≈ 23.7 µg/mL)	0.23	1.57	25	7.7	4.3	47	6.71	> 3	2.47	0.077	0.058	8.5	8.1	26	10.2	84	pIC50 (Cytochrome P450 2C19): 5.17; fraction unbound [34]: 0.095; concentration at 1 h [35]: 0.49 µM; inhibition [36]: 69%; Cmax [37]: 24.5 µg/mL; AUC [38]: 274 µg·h/mL; Cmax [39]: 3.16 µg/mL; AUC [40]: 51 µg·h/mL
